According to paper PMC6543911, “Discovery of Coumarin as Microtubule Affinity-Regulating Kinase 4 Inhibitor That Sensitize Hepatocellular Carcinoma to Paclitaxel” (Frontiers in Chemistry, 2019):

Tests used:
MARK4 catalytic domain [1] = target: T1, MARK4 catalytic domain (Homo sapiens, UniProt Q96L34); assay: Kinase activity assay (ADP-Glo) using MARK4 as enzyme; type: biochemical; conditions: for IC50: MARK4 5 nM, 100 μM ATP, 5 μM MAP4, 30 min, duplicate, means ± SEM
T1 construct: The recombinant MARK4 catalytic domain was used as kinase; made in house; host or cells: E. coli BL21 (DE3)
Description: MARK4 catalytic domain sequence was subcloned into pET-28a vector. Protein expression in E. coli. BL21 (DE3) was induced by IPTG overnight at 16°C, and the cells were then pelleted by centrifugation at 4,000 rpm for 15 min and resuspended in 20 mL buffer (20 mM Tris-HCl, 150 mM NaCl, 25 mM imidazole pH 8.0). Proteins were purified by nickel-affinity chromatography followed by thrombin cleavage. The proteins were further purified by size-exclusion chromatography using a Superdex 75 column (GE Healthcare).
(§1) The kinase activity of MARK4 was measured via ADP-Glo™ kinase assay kit (Promega, USA) under manufacturer's instruction. The recombinant MARK4 catalytic domain was used as kinase. MARK4 (5 nM) activity was tested in a reaction (10 μL) containing 25 mM Tris (pH 7.6), 10 mM MgCl2, 150 mM NaCl, 1 mM EDTA, 1 mM DTT, 100 μM ATP, 5 μM MAP4 and varied concentrations of samples for 30 min. The reaction progress was monitored on Thermo Scientific Varioskan Flash Multimode Reader. Each data point was collected in duplicate and kinetic parameters were obtained using GraphPad Prism v6.0 software.

PDK1 = target: T2, PDK1 (Homo sapiens, UniProt O15530); assay: Kinase activity assay using PDK1 as enzyme; type: biochemical; conditions: duplicate, means ± SEM
T2 sequence (O15530 1-556): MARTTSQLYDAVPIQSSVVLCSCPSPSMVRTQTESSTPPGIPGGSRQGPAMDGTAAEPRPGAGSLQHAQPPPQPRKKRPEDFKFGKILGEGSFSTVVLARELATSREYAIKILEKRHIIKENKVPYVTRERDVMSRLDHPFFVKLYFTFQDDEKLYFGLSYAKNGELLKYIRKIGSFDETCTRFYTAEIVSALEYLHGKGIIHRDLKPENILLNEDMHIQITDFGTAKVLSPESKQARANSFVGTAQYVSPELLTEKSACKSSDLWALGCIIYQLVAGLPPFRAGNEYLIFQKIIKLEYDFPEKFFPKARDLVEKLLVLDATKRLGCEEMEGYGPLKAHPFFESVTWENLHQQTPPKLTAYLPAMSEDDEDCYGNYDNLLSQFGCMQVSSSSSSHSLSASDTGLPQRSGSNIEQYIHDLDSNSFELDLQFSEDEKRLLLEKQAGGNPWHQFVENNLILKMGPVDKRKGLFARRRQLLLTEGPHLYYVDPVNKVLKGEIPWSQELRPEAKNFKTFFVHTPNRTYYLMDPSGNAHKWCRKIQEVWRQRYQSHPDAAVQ
Description: (§2) With these coumarins in hand, we performed kinase assay using MARK4 catalytic domain as enzyme to test the MARK4 inhibitory activity of these samples. […] To characterize the selectivity of compound 50, we performed kinase activity assay by using PDK1, AKT1, Src, and MARK4 as enzyme.
as §1

AKT1 = AKT1 (Homo sapiens, UniProt P31749); assay: Kinase activity assay using AKT1 as enzyme; type: biochemical; conditions: duplicate, means ± SEM
Description: as §2, §1

Src = Src (Homo sapiens, UniProt P12931); assay: Kinase activity assay using Src as enzyme; type: biochemical; conditions: duplicate, means ± SEM
Description: as §2, §1

MARK4 = target: MARK4; parameters: method as in Naz et al., 2015; conditions: ref Naz et al., 2015; read-out: Kd between BX-795 and MARK4; cited from earlier work
MARK4 catalytic domain [2] = target: T1, MARK4 catalytic domain; assay: Surface plasmon resonance (SPR) assay; type: binding; conditions: different sample concentrations, read-out: dissociation constant (Kd value) toward MARK4
Description: The interaction of small molecule with MARK4 was monitored by surface plasmon resonance (SPR) using a BIAcore T100 instrument (GE Healthcare, USA). In brief, recombinant MARK4 catalytic domain was immobilized on a carboxyl methylated dextran sensor chip (Sensor Chip CM3). A flow channel blocked by ethanolamine was used as control surface. The specific interaction of samples with the immobilized MARK4 catalytic domain was assessed. All samples were analyzed at a flow rate of 30 μL/min with 10 mM HEPES running buffer and contact time of 260 s. The surface was washed and regenerated with a 10 mM glycine-HCl buffer at pH 3.0 followed by a 30 min waiting time for dissolution after each experiment. The analyses were performed in BIAcore T100 evaluation software, version 2.0.2 (GE Healthcare, USA).

MARK4 catalytic domain [3] = target: T1, MARK4 catalytic domain; assay: Thermal shift assay; type: binding; conditions: sample 1 μM
Description: Recombinant MARK4 catalytic domain was diluted with PBS and divided into two aliquots, with one aliquot being treated with sample (1 μM) and the other aliquot with vehicle. After 20 min of incubation at room temperature, the respective mixtures were divided into smaller (40 μL) aliquots and heated individually at different temperatures for 3 min, followed by cooling at room temperature for 3 min. The appropriate temperatures were determined in preliminary CETSA experiments. The heated mixtures were centrifuged at 20,000 × g at 4°C for 20 min in order to separate the soluble fractions from precipitates. The supernatants were transferred to new microtubes and analyzed by HPLC.

HepG2 cells [4] = assay: Cell viability assay (MTT) in HepG2 cells; type: cell-based
Description: (§3) HepG2 and SMMC-7721 cells were cultured in DMEM medium (Gibco) supplemented with 10% FBS (Gibco, USA). For transient transfection, cells were transfected with DNA by Lipofectamine 2000 (Thermo fisher, USA).
(§4) HCC cells (100 μL/each well, 20,000 cells/mL) were seeded in a 96-well culture plate and allowed to grow for 24 h in DMEM medium supplemented with 10% FBS and 1% penicillin/streptomycin sulfate. The cells were then treated with drugs or vehicle control and incubated in a 5% CO2 incubator for indicated time. At the end of incubation, 10 μL of MTT stock solution (5 mg/mL) was added into each well. The plate was continued to be incubated at 37°C for 4 h before the medium was removed. Then, DMSO (100 μL) was added into each well, followed by thorough shaking. The absorbance of the formazan product was measured at 570 nm on Thermo Scientific Varioskan Flash Multimode Reader. The IC50 value was obtained by fitting dose-response data to a three parametric non-linear regression model using GraphPad Prism 6.0 software.

SMMC-7721 cells [5] = assay: Cell viability assay (MTT) in SMMC-7721 cells; type: cell-based
Description: as §3, §4

HEK-293T cells = assay: Cell viability assay in HEK-293T cells; type: cell-based; conditions: human normal HEK-293T cells
HepG2 cells [6] = assay: Cell apoptosis assay (Annexin V-FITC/PI flow cytometry) in HepG2 cells; type: cell-based
Description: (§5) HCC cells (2 × 10^5 cells/well) were plated in a 6-well plate and treated with samples at 37°C for 36 h. After incubation, the cells were harvested and washed with ice-cold PBS. Annexin V-FITC-PI apoptosis detection kit (Abcam, USA) was used for a direct observation of viable, early apoptotic, and late apoptotic cells. Annexin V-FITC and propidium iodide were added according to the manufacturer's instructions, and the samples were incubated in the dark for 15 min. The apoptosis ratio was analyzed using BD FACSCalibur flow cytometry.

SMMC-7721 cells [7] = assay: Cell apoptosis assay (Annexin V-FITC/PI flow cytometry) in SMMC-7721 cells; type: cell-based; conditions: 15 μM, 36 h
Description: as §5

HepG2 cells [8] = assay: Colony formation assay of HepG2 cells; type: cell-based; conditions: compared with vehicle
MAP4 phosphorylation = assay: Immunoblotting of MAP4 phosphorylation in HepG2 cell lysates; type: cell-based; conditions: HepG2 cells, 15 μM, 36 h
Description: HepG2 cells (2 × 10^5 cells/well) were plated in a 6-well plate and treated with compound 50 (15 μM) and vehicle at 37°C for 36 h. Cells were harvested, washed with physiological saline, and lysed with RIPA lysis buffer (Beyotime) including phosphatase and protease cocktail (Bimake). Protein was quantified by BCA protein assay kit (Bestbio) and subjected to SDS-PAGE. The separated proteins were transferred onto PVDF membranes and probed with antibody (anti-p-MAP4, anti-MAP4, and anti-actin) and peroxidase-conjugated secondary antibody, which was followed by enhanced chemiluminescence detection (Amersham Biosciences).

T1 sequence (Q96L34 59-310 limits assumed): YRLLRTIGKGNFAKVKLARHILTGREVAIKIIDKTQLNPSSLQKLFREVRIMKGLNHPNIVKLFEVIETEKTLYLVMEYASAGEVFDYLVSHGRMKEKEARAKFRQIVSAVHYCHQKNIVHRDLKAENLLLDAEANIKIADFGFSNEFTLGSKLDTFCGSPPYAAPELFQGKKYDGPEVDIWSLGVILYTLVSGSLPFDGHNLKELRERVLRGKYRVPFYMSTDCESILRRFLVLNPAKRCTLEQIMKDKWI
Src, sequence (P12931 whole entry, species assumed): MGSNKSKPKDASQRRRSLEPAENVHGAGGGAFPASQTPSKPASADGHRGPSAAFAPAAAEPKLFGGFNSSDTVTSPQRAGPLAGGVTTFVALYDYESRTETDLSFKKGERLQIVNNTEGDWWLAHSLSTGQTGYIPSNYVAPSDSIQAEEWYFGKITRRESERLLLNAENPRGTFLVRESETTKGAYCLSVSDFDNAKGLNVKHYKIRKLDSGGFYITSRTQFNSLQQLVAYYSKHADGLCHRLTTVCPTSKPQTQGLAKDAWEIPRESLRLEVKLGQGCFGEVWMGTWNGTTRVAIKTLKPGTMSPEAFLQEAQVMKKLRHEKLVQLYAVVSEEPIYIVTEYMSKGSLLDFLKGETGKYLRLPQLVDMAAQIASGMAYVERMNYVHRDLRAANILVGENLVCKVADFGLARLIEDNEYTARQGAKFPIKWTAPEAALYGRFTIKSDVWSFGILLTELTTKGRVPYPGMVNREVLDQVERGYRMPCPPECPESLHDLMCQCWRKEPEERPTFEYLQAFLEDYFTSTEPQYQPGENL
AKT1, sequence (P31749 whole entry, species assumed): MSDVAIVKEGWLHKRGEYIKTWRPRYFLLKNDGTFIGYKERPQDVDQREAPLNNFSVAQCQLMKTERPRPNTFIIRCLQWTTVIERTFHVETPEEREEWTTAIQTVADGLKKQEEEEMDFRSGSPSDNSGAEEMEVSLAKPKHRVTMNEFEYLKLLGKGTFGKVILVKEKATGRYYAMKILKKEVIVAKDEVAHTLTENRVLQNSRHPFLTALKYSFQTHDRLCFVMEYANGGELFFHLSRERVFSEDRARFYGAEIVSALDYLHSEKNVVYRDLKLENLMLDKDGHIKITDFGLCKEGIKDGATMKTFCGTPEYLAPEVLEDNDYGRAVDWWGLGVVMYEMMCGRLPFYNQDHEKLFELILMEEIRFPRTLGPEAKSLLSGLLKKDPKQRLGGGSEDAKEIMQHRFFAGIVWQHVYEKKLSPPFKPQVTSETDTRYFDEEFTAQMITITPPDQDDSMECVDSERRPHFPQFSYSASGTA

`O=C(NCCCNc1nc(Nc2cccc(NC(=O)N3CCCC3)c2)ncc1I)c1cccs1` [BX-795, reference compound] gave an IC50 (MARK4 catalytic domain [1]) of 4.99 ± 0.812 µM, an IC50 (PDK1) of 1.68 ± 0.192 µM and an IC50 (AKT1) of 2.87 ± 0.269 µM. The IC50 (Src) was 5.87 ± 0.405 µM and the Kd (MARK4) was 6.46 µM.
For `COc1ccc2oc(=O)c(C(=O)c3ccccc3)cc2c1` [Compound 50, 3-benzoyl-6-methoxy-2H-chromen-2-one], the IC50 (MARK4 catalytic domain [1]) was 1.3 ± 0.102 µM, the inhibition at 10 µM (MARK4 catalytic domain [1]; at 10 μM) was roughly 80% and the IC50 (PDK1) was 5.97 ± 0.289 µM. It also gave an IC50 (AKT1) of 11.8 ± 0.336 µM, an IC50 (Src) of 19 ± 1.32 µM and a Kd (MARK4 catalytic domain [2]) of 346 nM. The “temperature shift of MARK4 thermal stability (ΔT)” value (MARK4 catalytic domain [3]) was 3.13 °C, the “effect of MARK4-knockdown on anti-proliferative activity” value (HepG2 cells [4]; HepG2 cells transiently transfected with MARK4-knockdown vs control vectors) was “significantly attenuated” and the “inhibitory activity of paclitaxel in the presence of compound” value (HepG2 cells [4]; HepG2 cells, varied paclitaxel concentrations with 2.5 μM compound 50) was “remarkably enhanced”. For the same compound, the viability at 2.5 µM (HepG2 cells [4]; Homo sapiens, HepG2 cells, 2.5 μM compound alone, read-out: cell viability upon treatment) was greater than 80%, the IC50 (HepG2 cells [4]; Homo sapiens, HepG2 cells, MTT) was 11.2 µM and the viability at 2.5 µM (SMMC-7721 cells [5]; Homo sapiens, 2.5 μM compound alone, read-out: cell viability upon treatment) was greater than 80%. The IC50 (SMMC-7721 cells [5]; Homo sapiens, MTT) was 12.8 µM, the “inhibitory activity of paclitaxel in the presence of compound” value (SMMC-7721 cells [5]; varied paclitaxel concentrations with 2.5 μM compound 50) was “remarkably enhanced” and the “concentrations at which cell viability of HEK-293T cells was suppressed” value (HEK-293T cells) was greater than 50 µM. The “apoptosis, single agent” value (HepG2 cells [6]; 2.5 μM alone) was “unable to trigger distinct apoptosis”, the “apoptosis: cell numbers of early and late apoptotic cells” value (HepG2 cells [6]; 15 μM, 36 h) was “obviously increased” and the “apoptosis, combination with paclitaxel” value (HepG2 cells [6]; compound 50 2.5 μM in combination with paclitaxel 2.5 μM) was “activated HCC apoptosis”. The “apoptosis: cell numbers of early and late apoptotic cells” value (SMMC-7721 cells [7]) was “obviously increased”, the “colony formation of HepG2 cells” value (HepG2 cells [8]) was “significantly suppressed” and the “level of MAP4 phosphorylation” value (MAP4 phosphorylation) was “decreased”.
